According to publication PMC10952582, “Pregnenolone sulfate analogues differentially modulate GABAA receptor closed/desensitised states” (British Journal of Pharmacology, 2023):

Key:
α1β3γ2L GABAAR [1] = biological target: T1, α1β3γ2L GABAAR (Mus musculus, UniProt P22723+P62812+P63080); assay: Whole-cell voltage-clamp electrophysiology, wild-type α1β3γ2L GABAARs expressed in HEK cells; type: cell-based, murine
T1 construct: expressed in transfected cells; host or cells: HEK 293 cells (ATCC CRL-1573)
T1 sequence (P62812 28-455): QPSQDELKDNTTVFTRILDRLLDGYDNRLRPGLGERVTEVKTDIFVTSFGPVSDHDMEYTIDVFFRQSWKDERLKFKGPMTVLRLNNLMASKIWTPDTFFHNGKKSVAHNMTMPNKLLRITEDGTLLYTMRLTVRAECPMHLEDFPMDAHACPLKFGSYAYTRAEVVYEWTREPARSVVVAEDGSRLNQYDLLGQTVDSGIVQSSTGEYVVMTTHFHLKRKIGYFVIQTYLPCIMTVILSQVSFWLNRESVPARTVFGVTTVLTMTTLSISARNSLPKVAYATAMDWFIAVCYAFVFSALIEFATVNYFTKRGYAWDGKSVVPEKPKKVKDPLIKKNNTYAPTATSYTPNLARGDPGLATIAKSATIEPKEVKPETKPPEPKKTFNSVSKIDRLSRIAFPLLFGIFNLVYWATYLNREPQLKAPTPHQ
T1 sequence (P63080 26-473 partner): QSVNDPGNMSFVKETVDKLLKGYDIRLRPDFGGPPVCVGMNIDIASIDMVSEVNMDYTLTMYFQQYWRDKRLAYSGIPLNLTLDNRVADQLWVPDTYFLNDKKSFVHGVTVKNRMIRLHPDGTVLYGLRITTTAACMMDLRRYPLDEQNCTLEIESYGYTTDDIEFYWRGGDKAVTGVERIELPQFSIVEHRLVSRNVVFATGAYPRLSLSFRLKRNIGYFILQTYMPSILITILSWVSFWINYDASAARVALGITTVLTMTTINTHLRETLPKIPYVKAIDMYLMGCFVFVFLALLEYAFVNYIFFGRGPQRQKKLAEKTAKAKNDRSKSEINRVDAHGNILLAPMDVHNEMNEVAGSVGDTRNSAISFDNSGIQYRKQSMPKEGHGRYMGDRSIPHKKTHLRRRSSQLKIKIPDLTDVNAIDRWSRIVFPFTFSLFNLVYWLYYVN
T1 sequence (P22723 39-474 partner): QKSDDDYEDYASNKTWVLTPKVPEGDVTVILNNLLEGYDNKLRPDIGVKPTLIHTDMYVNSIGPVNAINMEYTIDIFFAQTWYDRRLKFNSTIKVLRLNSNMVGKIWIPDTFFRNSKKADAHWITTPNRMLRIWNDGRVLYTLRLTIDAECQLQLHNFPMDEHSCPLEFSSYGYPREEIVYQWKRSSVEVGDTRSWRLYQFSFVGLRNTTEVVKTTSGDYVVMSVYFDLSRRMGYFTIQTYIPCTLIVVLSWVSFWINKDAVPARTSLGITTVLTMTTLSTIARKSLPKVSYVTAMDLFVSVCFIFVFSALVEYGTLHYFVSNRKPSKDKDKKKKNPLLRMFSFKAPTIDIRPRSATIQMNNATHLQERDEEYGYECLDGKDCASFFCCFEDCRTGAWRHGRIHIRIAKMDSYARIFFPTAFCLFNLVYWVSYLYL
Method: (§1) HEK 293 cells (ATCC Cat# CRL‐1573, RRID:CVCL_0045) were maintained and transfected under standard conditions. In brief, cells were grown in monolayers in Dulbecco's modified Eagle's medium supplemented with 10% v/v fetal calf serum, 100 U·ml^−1 of penicillin‐G and 100 μg·ml^−1 of streptomycin and incubated at 37°C in humidified 95% air/5% CO2.
(§2) Before transfection, HEK cells were plated onto 22 mm of glass coverslips (VWR) coated in poly‐L‐lysine (Sigma). Cells were transfected with α1 (wild‐type [wt] or mutant [mut]), β3 (wt), γ2L (wt or mut) and enhanced green fluorescent protein (eGFP) in an equimolar ratio (1:1:1:1), using a calcium‐phosphate precipitation protocol. The transfection solution was prepared from 4 μg of cDNA per coverslip, 20 μl of 340 mM of CaCl2 and 24 μl of 2× HEPES‐buffered saline (HBS) (50 mM of HEPES, 280 mM of NaCl and 2.8 mM of Na2HPO4). Cells were selected for electrophysiology after 16–30 h based on their morphology and moderate GFP fluorescence.
(§3) Coverslips with transfected HEK cells were transferred into a recording chamber on a Nikon Eclipse FN1 microscope with a 470‐nm LED for GFP fluorescence. Cells were continuously perfused with Krebs solution containing (mM) 140 NaCl, 4.7 KCl, 1.2 MgCl2, 2.52 CaCl2, 11 glucose and 5 HEPES (pH 7.4). Patch pipettes (thin‐walled filamented borosilicate glass capillaries; TW150F‐4; WPI, USA; 3–4 MΩ) were filled with an intracellular solution containing (mM) 140 CsCl, 2 NaCl, 2 MgCl2, 5 EGTA, 10 HEPES, 0.5 CaCl2, 2 Na‐ATP and 0.5 Na‐GTP (pH 7.2). Drugs were applied to cells using a Y‐tube delivery system (Mortensen & Smart, [2007]), with the PS analogues pre‐applied 10–12 s before co‐application with GABA.
(§4) HEK cells were voltage clamped at −30 mV using an Axopatch 200B amplifier (Molecular Devices, USA), and whole‐cell currents were filtered at 5 kHz (−36 dB), digitised at 50 kHz via a Digidata 1322A (Molecular Devices) and recorded to a Dell Optiplex 990 using Clampex 10.2 (Molecular Devices). Series resistance was compensated at 60%–70%, and only data with <20% deviation in series resistance would be included in subsequent analyses.
(§5) Weighted time constants for the decay phase (τw) were calculated by fitting a biexponential curve to the current decay waveform and applying the following equation: τw=A1.τ1+A2.τ2/A1+A2, where τ1 and τ2 represent time constants for the two exponential components of the decay phase and A1 and A2 are their relative area contributions.
(§6) Current responses from voltage‐clamp experiments were measured, and decays fitted using ClampFit 10.2 (Molecular Devices) to determine the respective time constants. In Origin, data were plotted as concentration–response curves, and curves fitted using the following inhibition equation: I/Imax=1−B^n/IC50^n+B^n, where I is the current response, B is the concentration of the PS analogue, n is the slope coefficient and IC50 is the analogue concentration producing 50% inhibition of GABA current (inhibitory potency). Potency values are presented as pIC50 with SEM values. The mean was transformed into a molar concentration by pIC50 = −log IC50. Other data are represented as the mean ± SEM.

α1β3γ2L GABAAR [2] = biological target: T2, α1β3γ2L GABAAR (Mus musculus, UniProt P62812); assay: as above; type: cell-based, murine; details: for mean (weighted) decay time (τw) of GABA current: 1 nM PS analogue, 30 μM GABA
T2 construct: expressed in transfected cells; host or cells: HEK 293 cells (ATCC CRL-1573)
T2 sequence (P62812 28-455): as the sequence (P62812 28-455) above
T2 sequence (P63080 26-473 partner): as the sequence (P63080 26-473 partner) above
T2 sequence (P22723 39-474 partner): as the sequence (P22723 39-474 partner) above
Method: as §1, §2, §3, §4, §5, §6

α1β3γ2LV262F GABAAR = biological target: T3, α1β3γ2LV262F GABAAR (Mus musculus, UniProt P62812); assay: Whole-cell voltage-clamp electrophysiology, highly desensitising mutant α1β3γ2LV262F in HEK cells; type: cell-based, murine
T3 construct: expressed in transfected cells; host or cells: HEK 293 cells (ATCC CRL-1573)
T3 sequence (P62812 28-455): as the sequence (P62812 28-455) above
T3 sequence (P63080 26-473 partner): as the sequence (P63080 26-473 partner) above
T3 sequence (P22723 39-474 V300F partner): as the sequence (P22723 39-474 partner) above, with V262F counted along it
Method: as §1, §2, §3, §4, §5, §6

α1F399Aβ3γ2L GABAAR = biological target: T4, α1F399Aβ3γ2L GABAAR (Mus musculus, UniProt P22723+P62812+P63080, F426A); assay: Whole-cell voltage-clamp electrophysiology, mutant α1F399Aβ3γ2L in HEK cells; type: cell-based, murine
T4 construct: expressed in transfected cells; host or cells: HEK 293 cells (ATCC CRL-1573)
T4 sequence (P62812 28-455 F426A): as the sequence (P62812 28-455) above, with F399A counted along it
T4 sequence (P63080 26-473 partner): as the sequence (P63080 26-473 partner) above
T4 sequence (P22723 39-474 partner): as the sequence (P22723 39-474 partner) above
Method: as §1, §2, §3, §4, §5
Current responses from voltage‐clamp experiments were measured, and decays fitted using ClampFit 10.2 (Molecular Devices) to determine the respective time constants. […]

α1F295Aβ3γ2L GABAAR = biological target: T5, α1F295Aβ3γ2L GABAAR (Mus musculus, UniProt P22723+P62812+P63080, F322A); assay: Whole-cell voltage-clamp electrophysiology, mutant α1F295Aβ3γ2L in HEK cells; type: cell-based, murine
T5 construct: expressed in transfected cells; host or cells: HEK 293 cells (ATCC CRL-1573)
T5 sequence (P62812 28-455 F322A): as the sequence (P62812 28-455) above, with F295A counted along it
T5 sequence (P63080 26-473 partner): as the sequence (P63080 26-473 partner) above
T5 sequence (P22723 39-474 partner): as the sequence (P22723 39-474 partner) above
Method: as §1, §2, §3, §4, §5, §6

α1V296Lβ3γ2L GABAAR [3] = biological target: T6, α1V296Lβ3γ2L GABAAR (Mus musculus, UniProt P22723+P62812+P63080, V323L); assay: Whole-cell voltage-clamp electrophysiology, minimally desensitising mutant α1V296Lβ3γ2L in HEK cells; type: cell-based, murine
T6 construct: expressed in transfected cells; host or cells: HEK 293 cells (ATCC CRL-1573)
T6 sequence (P62812 28-455 V323L): as the sequence (P62812 28-455) above, with V296L counted along it
T6 sequence (P63080 26-473 partner): as the sequence (P63080 26-473 partner) above
T6 sequence (P22723 39-474 partner): as the sequence (P22723 39-474 partner) above
Method: as §1, §2, §3, §4, §5, §6

[4] = biological target: T7, α1F295A, F399Aβ3γ2L GABAAR (Mus musculus, UniProt P22723+P62812+P63080, F322A/F426A); assay: Whole-cell voltage-clamp electrophysiology, mutant α1F295A,F399Aβ3γ2L in HEK cells; type: cell-based, murine
T7 construct: expressed in transfected cells; host or cells: HEK 293 cells (ATCC CRL-1573)
T7 sequence (P62812 28-455 F322A/F426A): as the sequence (P62812 28-455) above, with F295A, F399A counted along it
T7 sequence (P63080 26-473 partner): as the sequence (P63080 26-473 partner) above
T7 sequence (P22723 39-474 partner): as the sequence (P22723 39-474 partner) above
Method: as §1, §2, §3, §4, §5, §6

α1β3γ2L GABAAR [5] = biological target: T2, α1β3γ2L GABAAR; assay: Kinetic modelling and waveform fitting of GABA currents (ChanneLab); design: species or system murine; details: waveform fit
Method: We used ChanneLab (Version 2.2; Synaptosoft) to build relatively simple kinetic models of the GABAAR. To explore the functional behaviour of PS analogues (compounds) 5 and 6, we incorporated concentration‐dependent PS analogue‐bound states into the model. Simulated currents were generated in ChanneLab and explored at different GABA and PS analogue concentrations. These were evaluated against GABA currents generated under experimental conditions, using the waveform fitting function in ChanneLab. Rate constants connecting receptor states were determined initially empirically with reference to previously published values and varied individually to optimise the fit to the data (seed values) prior to using waveform fitting and Runge–Kutta numerical integration (RK5) to eventually simulate the experimental GABA current profiles with 50 iterations. GABA‐activated membrane currents were fitted over their full timecourse of 20 s.
To investigate, simplified GABAAR models were constructed, incorporating some or all the following receptor states: an unbound closed state (R); GABA‐bound closed ‘composite’ state (RA) that incorporates one or more preactivation states that are not explicitly indicated or a closed (RA) and separate preactivated (RfA) state; a GABA‐bound activated state (RA*); and a desensitised state (RD) accessed via the receptor's activated state. These simple models enable the generation of simulated GABA‐dependent currents, with values for the rate constants determined initially empirically in broad accord with published parameters and manually adjusted to provide seed values before performing waveform fitting with unconstrained rate constants (Figure 8a).
RA* is the activated receptor open channel before moving to a desensitised state RD.

α1V296Lβ3γ2L GABAAR [6] = biological target: T8, α1V296Lβ3γ2L GABAAR (Mus musculus, UniProt P62812, V323L); assay: Whole-cell voltage-clamp electrophysiology, minimally desensitising mutant α1V296Lβ3γ2L in HEK cells; type: cell-based, murine
T8 construct: expressed in transfected cells; host or cells: HEK 293 cells (ATCC CRL-1573)
T8 sequence (P62812 28-455 V323L): as the sequence (P62812 28-455) above, with V296L counted along it
T8 sequence (P63080 26-473 partner): as the sequence (P63080 26-473 partner) above
T8 sequence (P22723 39-474 partner): as the sequence (P22723 39-474 partner) above
Method: as §1, §2, §3, §4, §5, §6

[7] = Decay inhibition (pIC50), potency for reducing GABA current weighted decay time constant, 30 μM GABA
[8] = Peak inhibition (IC50), peak current evoked by 30 μM GABA, analogue pre-applied 10–12 s and co-applied
[9] = Peak inhibition (pIC50), peak current evoked by 30 μM GABA, analogue pre-applied 10–12 s and co-applied
[10] = Steady-state inhibition (pIC50), GABA current after 20 s of 30 μM GABA (near steady state)
[11] = Decay inhibition (pIC50), GABA current weighted decay time constant
[12] = Steady-state inhibition (pIC50), steady-state GABA current
[13] = Steady-state inhibition (pIC50), 30 μM GABA, 20 s
[14] = Decay inhibition (IC50), GABA current weighted decay time constant
[15] = Steady-state inhibition (IC50), GABA current after 20 s of 30 μM GABA (near steady state)
[16] = steady-state current after 20 s of 1 mM GABA

SMILES	IC50 (α1β3γ2L GABAAR [1]; [7]) [µM]	IC50 (α1β3γ2L GABAAR [1]; [8]) [µM]	IC50 (α1β3γ2L GABAAR [1]; [9]) [µM]	IC50 (α1β3γ2L GABAAR [1]; [10]) [µM]	mean (weighted) decay time (τw) of GABA current (α1β3γ2L GABAAR [2]) [s]	IC50 (α1β3γ2LV262F GABAAR; [11]) [µM]	IC50 (α1β3γ2LV262F GABAAR; [12]) [µM]	IC50 (α1F399Aβ3γ2L GABAAR; [11]) [µM]	IC50 (α1F399Aβ3γ2L GABAAR; [13]) [µM]	IC50 (α1F295Aβ3γ2L GABAAR; [11]) [µM]	IC50 (α1F295Aβ3γ2L GABAAR; [13]) [µM]	IC50 (α1β3γ2L GABAAR [1]; [15]) [µM]	IC50 [4, 11] [µM]	IC50 [4, 13] [µM]	other results
CC12CCC(OS(=O)(=O)O)CC1=CCC1C2CCC2(C)C(C(=O)CBr)CCC12 (centres unmarked) [compound 2]	0.875	2.7	2.65	0.279	3.8 ± 0.2	–	–	–	–	–	–	–	–	–	IC50 (α1β3γ2L GABAAR [1]; Decay inhibition (IC50), potency for reducing GABA current weighted decay time constant, 30 μM GABA): 0.88 µM
C[C@]12CC[C@H](OS(=O)(=O)O)CC1=CCC1C2CC[C@@]2(C)C1CC[C@@H]2C(=O)Cn1cccn1 (some centres unmarked) [compound 6]	1.66	–	220 ± 14.6	1.13	3.8 ± 0.2	2.88	25.1	1.49	7.29	1.35	4.51	~1	1.23	4.15	IC50 (α1F295Aβ3γ2L GABAAR; [14]): 1.4 µM; fold difference in current decay potency, compound 6 vs compound 5 (α1β3γ2L GABAAR [2]; wild-type α1β3γ2L, decay IC50 of 5 vs 6): 70 fold; IC50 (α1V296Lβ3γ2L GABAAR [3]; [14]): > 100 µM; IC50 (α1V296Lβ3γ2L GABAAR [3]; Steady-state inhibition (IC50), steady-state GABA current): > 100 µM; IC50 ([4]; Steady-state inhibition (IC50), 30 μM GABA, 20 s): 4.2 µM; rate constant k4, Model (c) (α1β3γ2L GABAAR [5]; Model (c): binding to RA (RAP) and RD (RDP), 30 μM GABA): 234000 M⁻¹ s⁻¹; rate constant k2, Model (c) (α1β3γ2L GABAAR [5]; Model (c), 30 μM GABA): 129000 M⁻¹ s⁻¹; rate constant k‐4, Model (c) (α1β3γ2L GABAAR [5]; Model (c), 30 μM GABA): 184 s⁻¹; rate constant k2, Model (d) (α1β3γ2L GABAAR [5]; Model (d): binding to preactivated state RfA (RfAP) and RD): 173000 M⁻¹ s⁻¹; rate constant k4, Model (d) (α1β3γ2L GABAAR [5]; Model (d)): 184000 M⁻¹ s⁻¹; rate constant k‐4, Model (d) (α1β3γ2L GABAAR [5]; Model (d)): 307 s⁻¹
CC12CCC(OS(=O)(=O)O)CC1=CCC1C2CCC2(C)C(C(=O)Cn3cccc3)CCC12 (centres unmarked) [compound 8]	3.23	–	33.3	0.236	3.6 ± 0.3	–	–	–	–	–	–	–	–	–	–
NCCCC(=O)O [GABA, γ‐Aminobutyric acid]	–	–	–	–	–	–	–	–	–	–	–	–	–	–	mean weighted decay time constant (τw) of GABA current (α1β3γ2LV262F GABAAR; 1 mM GABA, 20 s): 2.3 ± 0.28 s; extent of macroscopic desensitisation (α1β3γ2LV262F GABAAR; [16]): 89 ± 1.3%; mean weighted decay time constant (τw) of GABA current (α1β3γ2L GABAAR [2]; wild-type α1β3γ2L, 1 mM GABA, 20 s): 3.7 ± 0.17 s; extent of macroscopic desensitisation (α1β3γ2L GABAAR [2]; wild-type α1β3γ2L, steady-state current after 20 s of 1 mM GABA): 68 ± 1.6%; mean weighted decay time constant (τw) of GABA current (α1V296Lβ3γ2L GABAAR [6]; 1 mM GABA, 20 s): 7.4 ± 1.3 s; extent of macroscopic desensitisation (α1V296Lβ3γ2L GABAAR [6]; [16]): 39 ± 6.0%
C[C@]12CC[C@H](OS(=O)(=O)O)CC1=CCC1C2CC[C@@]2(C)C1CC[C@@H]2C(=O)Cn1ccnc1 (some centres unmarked) [compound 3]	8.51	743	–	0.891	3.8 ± 0.8	–	–	–	–	–	–	~1	–	–	–
C[C@]12CC[C@H](OS(=O)(=O)O)CC1=CCC1C2CC[C@@]2(C)C1CC[C@@H]2C(=O)CN1CCOCC1 (some centres unmarked) [compound 5]	117	–	~2000	0.843	3.7 ± 0.1	70.8	14.2	7.89	8.36	8.47	2.93	~1	7.21	5.22	IC50 (α1V296Lβ3γ2L GABAAR [3]; [11]): 3.24 µM; IC50 (α1V296Lβ3γ2L GABAAR [3]; [12]): 20.7 µM; rate constant k2, Model (b) (α1β3γ2L GABAAR [5]; Model (b): binding to RA forming RAP, then RAPd, 30 μM GABA): 62900 M⁻¹ s⁻¹; rate constant k3, Model (b) (α1β3γ2L GABAAR [5]; Model (b), 30 μM GABA): 921000 s⁻¹
